# According to patent US5852018A, “Pharmaceutical piperazine compounds” (Xenova Limited, priority 1994, dated 1998):
# Test system: AR 1.0 cells
# Test: Drug accumulation assay (tritiated daunorubicin) in MDR resistant AR 1.0 cells
# Assay type: cell-based
# Conditions: Mus musculus, 1 h, DNR 2 μM, 100% = accumulation with 100 μM Verapamil, read-out: MAX accumulation (% 100 μm VRP)
# Protocol: The EMT6 mouse mammary carcinoma cell line and the MDR resistant subline AR 1.0 were cultured in RPMI 1640 medium containing 10% foetal calf serum and 2 mM glutamine at 37° C. in 5% CO2 . Cells were passaged between 1 in 200 and 1 in 2000 in the case of the parental cell line and between 1 in 20 and 1 in 200 in the case of the MDR resistant subline, after trypsinisation (0.25% trypsin, 0.2 gl^-1, EDTA).
# AR 1.0 cells were seeded into 96 well opaque culture plates (Canberra Packard). The assay medium contained a mixture of tritiated Daunorubicin (DNR), a cytotoxic agent, and unlabelled DNR (0.25μ Ci/ml; 2 μM). Compounds of formula A were serially diluted in assay medium over a range of concentrations from 100 nM to 100 μM. The cells were incubated at 37° C. for 1 hr before washing and counting of cell associated radioactivity. Each assay included a titration of the known resistance modifying agent Verapamil as positive control. Results were expressed as % maximum accumulation where 100% accumulation is that observed in the presence of 100 μM Verapamil.
row,Compound,Emax [%]
1,"COC(=O)Cn1c(=O)/c(=C/c2ccc(OC)cc2)[nH]c(=O)/c1=C/c1ccccc1 [Compound 1490, Methyl (3Z,6Z)-6-benzylidene-3-(4-methoxybenzylidene)-2,5-dioxo-1-piperazinylacetate]",63.6
2,"COc1ccc(/C=c2\[nH]c(=O)/c(=C/c3ccccc3)n(CC(=O)N3CCCC3)c2=O)cc1 [Compound 1526, N,N-Tetramethylene-(3Z,6Z)-6-benzylidene-3-(4-methoxybenzylidene)-2,5-dioxo-1-piperazinylacetamide]",23.3
3,"COc1ccc(/C=c2/c(=O)[nH]/c(=C\c3ccccc3)c(=O)n2CC(=O)N(C)C)cc1 [Compound 1614, N,N,-Dimethyl-(3Z,6Z)-3-benzylidene-6-(4-methoxybenzylidene)-2,5-dioxo-1-piperazinylacetamide]",25
4,"COc1ccc(/C=c2\nc(OCC3CC3)/c(=C/c3ccccc3)n(C)c2=O)cc1 [Compound 1745, (3Z,6Z)-6-Benzylidene-5-cyclopropylmethoxy-3-(4-methoxybenzylidene)-1-methyl-3,6-dihydro-2-pyrazinone]",35
5,COc1n/c(=C\c2ccccc2)c(=O)n(C)/c1=C\c1ccccc1 [Compound 1771],60
6,Cn1c(=O)/c(=C/c2ccccc2)nc(OCC2CCCCC2)/c1=C/c1ccccc1 [Compound 1780],20
7,"CCOc1n/c(=C\c2ccccc2)c(=O)n(C)/c1=C\c1ccccc1 [Compound 1801, (3Z,6Z)-3,6-Dibenzylidene-5-ethoxy-1-methyl-3,6-dihydro-2-pyrazinone]",40
8,"Cn1c(=O)/c(=C/c2ccccc2)n(CCBr)c(=O)/c1=C/c1ccccc1 [Compound 1803, (3Z,6Z)-3,6-Dibenzylidene-1-(2-bromoethyl)-4-methyl-2,5-piperazinedione]",50
9,"CC(C)Oc1n/c(=C\c2ccccc2)c(=O)n(C)/c1=C\c1ccccc1 [Compound 1819, (3Z,6Z)-3,6-Dibenzylidene-5-isopropoxy-1-methyl-3,6-dihydro-2-pyrazinone]",23
10,"Cn1c(=O)/c(=C/c2ccccc2)nc(OCCc2ccccc2)/c1=C/c1ccccc1 [Compound 1820, (3Z,6Z)-3,6-Dibenzylidene-1-methyl-5-(2-phenethoxy)-3,6-dihydro-2-pyrazinone]",34
11,"CC(C)COc1n/c(=C\c2ccccc2)c(=O)n(C)/c1=C\c1ccccc1 [Compound 1821, (3Z,6Z)-3,6-Dibenzylidene-5-isobutoxy-1-methyl-3,6-dihydro-2-pyrazinone]",35
12,"C=CCCOc1n/c(=C\c2ccccc2)c(=O)n(C)/c1=C\c1ccccc1 [Compound 1826, (3Z,6Z)-3,6-Dibenzylidene-5-(3-butenyloxy)-1-methyl-3,6-dihydro-2-pyrazinone]",40
13,"Cn1c(=O)/c(=C/c2ccccc2)nc(OCC#N)/c1=C/c1ccccc1 [Compound 1827, (3Z,6Z)-3,6-Dibenzylidene-1-methyl-2-oxo-1,2,3,6-tetrahydro-5-pyrazinyloxyacetonitrile]",35
14,"CC=CCOc1n/c(=C\c2ccccc2)c(=O)n(C)/c1=C\c1ccccc1 [Compound 1861, (3Z,6Z)-3,6-Dibenzylidene-5-(2-butenyloxy)-1-methyl-3,6-dihydro-2-pyrazinone]",46
15,"C=CCOc1n/c(=C\c2ccccc2)c(=O)n(C)/c1=C\c1ccccc1 [Compound 1864, (3Z,6Z)-5-Allyloxy-3,6-dibenzylidene-1-methyl-3,6-dihydro-2-pyrazinone]",45
16,"CC(=O)OCCCCOc1n/c(=C\c2ccccc2)c(=O)n(C)/c1=C\c1ccccc1 [Compound 1904, (3Z,6Z)-5-(4-Acetoxybutoxy)-3,6-dibenzylidene-1-methyl-3,6-dihydro-2-pyrazinone]",47
17,"Cn1c(=O)/c(=C/c2ccccc2)nc(OCN2C(=O)c3ccccc3C2=O)/c1=C/c1ccccc1 [Compound 1905, (3Z,6Z)-3,6-Dibenzylidene-1-methyl-5-phthalimidomethoxy-3,6-dihydro-2-pyrazinone]",29
18,"O=c1/c(=C/c2ccccc2)n(Cc2ccccc2)c(=O)/c(=C/c2ccccc2)n1Cc1ccccc1 [Compound 1906, (3Z,6Z)-1,4-Dibenzyl-3,6-dibenzylidene-2,5-piperazinedione]",34

# Same assay, conditions: Mus musculus, DNR 2 μM, 37° C., 1 hr
row,Compound,IC50 [µM]
1,"COC(=O)Cn1c(=O)/c(=C/c2ccccc2)[nH]c(=O)/c1=C/c1ccc(OC)cc1 [Compound 1486, Methyl (3Z,6Z)-3-benzylidene-6-(4-methoxybenzylidene)-2,5-dioxo-1-piperazinylacetate]",50
2,"COC(=O)Cn1c(=O)/c(=C/c2ccc(OC)cc2)[nH]c(=O)/c1=C/c1ccccc1 [Compound 1490, Methyl (3Z,6Z)-6-benzylidene-3-(4-methoxybenzylidene)-2,5-dioxo-1-piperazinylacetate]",30
3,COc1n/c(=C\c2ccccc2)c(=O)n(C)/c1=C\c1ccccc1 [Compound 1771],70
4,"Cn1c(=O)/c(=C/c2ccccc2)n(CCBr)c(=O)/c1=C/c1ccccc1 [Compound 1803, (3Z,6Z)-3,6-Dibenzylidene-1-(2-bromoethyl)-4-methyl-2,5-piperazinedione]",80
5,"Cn1c(=O)/c(=C/c2ccccc2)n(CCO)c(=O)/c1=C/c1ccccc1 [Compound 1854, (3Z,6Z)-3,6-Dibenzylidene-1-(2-hydroxyethyl)-4-methyl-2,5-piperazinedione]",35
6,"Cn1c(=O)/c(=C/c2ccccc2)n(CCc2ccccc2)c(=O)/c1=C/c1ccccc1 [Compound 1856, (3Z,6Z)-3,6-Dibenzylidene-4-methyl-1-phenethyl-2,5-piperazinedione]",15
7,"CC(C)Cn1c(=O)/c(=C/c2ccccc2)n(C)c(=O)/c1=C/c1ccccc1 [Compound 1857, (3Z,6Z)-3,6-Dibenzylidene-1-isobutyl-4-methyl-2,5-piperazinedione]",10
8,"Cn1c(=O)/c(=C/c2ccccc2)n(CC#N)c(=O)/c1=C/c1ccccc1 [Compound 1858, ((3Z,6Z)-3,6-Dibenzylidene-4-methyl-2,5-dioxo-1-piperazinyl)acetonitrile]",60
9,"Cn1c(=O)/c(=C/c2ccccc2)nc(OCC=CCBr)/c1=C/c1ccccc1 [Compound 1859, (3Z,6Z)-3,6-Dibenzylidene-5-(4-bromo-2-butenyloxy)-1-methyl-3,6-dihydro-2-pyrazinone]",15
10,Cn1c(=O)/c(=C/c2ccccc2)n(CC=CCBr)c(=O)/c1=C/c1ccccc1 [Compound 1860],10
11,"CC=CCn1c(=O)/c(=C/c2ccccc2)n(C)c(=O)/c1=C/c1ccccc1 [Compound 1862, (3Z,6Z)-3,6-Dibenzylidene-1-(but-2-enyl)-4-methyl-2,5-piperazinedione]",8
12,"Cn1c(=O)/c(=C/c2ccccc2)nc(OCCO)/c1=C/c1ccccc1 [Compound 1863, (3Z,6Z)-3,6-Dibenzylidene-5-(2-hydroxyethoxy)-1-methyl-3,6-dihydro-2-pyrazinone]",10
13,"COc1ccc(/C=c2/c(=O)n(Cc3ccccc3)/c(=C\c3c(Cl)cccc3Cl)c(=O)n2C)cc1 [Compound 1878, (3Z,6Z)-1-Benzyl-6-(2,6-dichlorobenzylidene)-3-(4-methoxybenzylidene)-4-methyl-2,5-piperazinedione]",5
14,"COc1ccc(/C=c2/c(=O)n(C)/c(=C\c3ccccc3[N+](=O)[O-])c(=O)n2Cc2ccccc2)cc1 [Compound 1879, (3Z,6Z)-1-Benzyl-6-(4-methoxybenzylidene)-4-methyl-3-(2-nitrobenzylidene)-2,5-piperazinedione]",2
15,"CN(C)CCCOc1n/c(=C\c2ccccc2)c(=O)n(C)/c1=C\c1ccccc1 [Compound 1900, (3Z,6Z)-3,6-Dibenzylidene-5-(3-dimethylaminopropoxy)-1-methyl-3,6-dihydro-2-pyrazinone]",3
16,"Cn1c(=O)/c(=C/c2ccccc2)nc(OCc2ccncc2)/c1=C/c1ccccc1 [Compound 1901, (3Z,6Z)-3,6-Dibenzylidene-1-methyl-5-(4-pyridyl)methoxy-3,6-dihydro-2-pyrazinone]",12
17,"Cn1c(=O)/c(=C/c2ccccc2)nc(OCCN2C(=O)c3ccccc3C2=O)/c1=C/c1ccccc1 [Compound 1902, (3Z,6Z)-3,6-Dibenzylidene-1-methyl-5-(2-phthalimidoethoxy)-3,6-dihydro-2-pyrazinone]",11
18,"Cn1c(=O)/c(=C/c2ccccc2)nc(OCCCCN2C(=O)c3ccccc3C2=O)/c1=C/c1ccccc1 [Compound 1903, (3Z,6Z)-3,6-Dibenzylidene-1-methyl-5-(4-phthalimidobutoxy)-3,6-dihydro-2-pyrazinone]",9
19,"Cn1c(=O)/c(=C/c2ccccc2)n(Cc2cccc([N+](=O)[O-])c2)c(=O)/c1=C/c1ccccc1 [Compound 1936, (3Z,6Z)-3,6-Dibenzylidene-1-methyl-4-(3-nitrobenzylidene)-2,5-piperazinedione]",2
20,"Cn1c(=O)/c(=C/c2ccccc2)n(Cc2ccc([N+](=O)[O-])cc2)c(=O)/c1=C/c1ccccc1 [Compound 1939, (3Z,6Z)-3,6-Dibenzylidene-1-methyl-4-(4-nitrobenzylidene)-2,5-piperazinedione]",4

# Test system: AR 1.0 cells
# Test: Proliferation assay with and without fixed concentration of doxorubicin (sulphorhodamine B)
# Assay type: cell-based, mouse
# Conditions: Mus musculus, 96 h; compound alone, four days; read-out: COMPOUND TOXICITY (IC50)
# Source text: Compounds of formula A were examined for their ability to potentiate the toxicity of doxorubicin in AR 1.0 cells.
row,Compound,IC50 [µM]
1,"COC(=O)Cn1c(=O)/c(=C/c2ccccc2)[nH]c(=O)/c1=C/c1ccc(OC)cc1 [Compound 1486, Methyl (3Z,6Z)-3-benzylidene-6-(4-methoxybenzylidene)-2,5-dioxo-1-piperazinylacetate]",10
2,"COC(=O)Cn1c(=O)/c(=C/c2ccc(OC)cc2)[nH]c(=O)/c1=C/c1ccccc1 [Compound 1490, Methyl (3Z,6Z)-6-benzylidene-3-(4-methoxybenzylidene)-2,5-dioxo-1-piperazinylacetate]",30

# Same assay, conditions: cytotoxic agent 1.00 μg/ml, four days; 5760 min; read-out: TOXICITY WITH CYTOTOXIC AGENT (IC 50)
row,Compound,IC50 [µM]
1,"COC(=O)Cn1c(=O)/c(=C/c2ccc(OC)cc2)[nH]c(=O)/c1=C/c1ccccc1 [Compound 1490, Methyl (3Z,6Z)-6-benzylidene-3-(4-methoxybenzylidene)-2,5-dioxo-1-piperazinylacetate]",2

# Same assay, conditions: fixed concentration 0.5-1 μM
row,Compound,toxicity of doxorubicin alone to AR 1.0 cells
1,"COc1cccc2c1C(=O)c1c(O)c3c(c(O)c1C2=O)C[C@@](O)(C(=O)CO)C[C@@H]3O[C@H]1C[C@H](N)[C@H](O)[C@H](C)O1 [doxorubicin, reference compound]",non-toxic
